# Measurements published in PubChem BioAssay (NCI).
#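 Here, GI50 denotes the concentration required for 50% inhibition of growth. The concentration for full growth arrest is given as TGI.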
# How the values were obtained:
# Assay in all cases: NCI tumour cell line growth inhibition, 384-well format
# NCI-H322M lung = tested on: NCI-H322M lung
# NCI-H460 NSCLC = tested on: NCI-H460 NSCLC
# NCI-H522 lung = tested on: NCI-H522 lung
# OVCAR-3 ovarian = tested on: OVCAR-3 ovarian
# OVCAR-4 ovarian = tested on: OVCAR-4 ovarian
# OVCAR-5 ovarian = tested on: OVCAR-5 ovarian
# OVCAR-8 ovarian = tested on: OVCAR-8 ovarian
# PC-3 prostate = tested on: PC-3 prostate
# RXF 393 renal = tested on: RXF 393 renal
# SF-268 CNS = tested on: SF-268 CNS
# SF-295 CNS = tested on: SF-295 CNS
# SF-539 CNS = tested on: SF-539 CNS
# SK-MEL-2 melanoma = tested on: SK-MEL-2 melanoma
# SK-MEL-28 melanoma = tested on: SK-MEL-28 melanoma
# SK-MEL-5 melanoma = tested on: SK-MEL-5 melanoma
# SK-OV-3 ovarian = tested on: SK-OV-3 ovarian
# SN12C renal = tested on: SN12C renal
# SNB-19 CNS = tested on: SNB-19 CNS
# SNB-75 CNS = tested on: SNB-75 CNS
# SR leukemia = tested on: SR leukemia
# SW-620 colon = tested on: SW-620 colon
# T-47D breast = tested on: T-47D breast
# TK-10 renal = tested on: TK-10 renal
# U251 glioblastoma = tested on: U251 glioblastoma
# UACC-257 melanoma = tested on: UACC-257 melanoma
# UACC-62 melanoma = tested on: UACC-62 melanoma
# UO-31 renal = tested on: UO-31 renal
smiles,measurement,setting,value
Nc1nn2cc(F)cnc2c1C(=O)Nc1cncc(F)c1N1CCC(C(=O)N2CCN(C3COC3)CC2)CC1,TGI,NCI-H322M lung,306 nM
same,GI50,NCI-H460 NSCLC,20.8 nM
same,TGI,NCI-H460 NSCLC,156 nM
same,GI50,NCI-H522 lung,183 nM
same,TGI,NCI-H522 lung,735 nM
same,GI50,OVCAR-3 ovarian,215 nM
same,TGI,OVCAR-3 ovarian,1420 nM
same,GI50,OVCAR-4 ovarian,62.5 nM
same,TGI,OVCAR-4 ovarian,2440 nM
same,GI50,OVCAR-5 ovarian,543 nM
same,TGI,OVCAR-5 ovarian,> 100000 nM
same,GI50,OVCAR-8 ovarian,174 nM
same,TGI,OVCAR-8 ovarian,558 nM
same,GI50,PC-3 prostate,296 nM
same,TGI,PC-3 prostate,2820 nM
same,GI50,RXF 393 renal,16 nM
same,TGI,RXF 393 renal,53.2 nM
same,GI50,SF-268 CNS,77.6 nM
same,TGI,SF-268 CNS,1740 nM
same,GI50,SF-295 CNS,31.5 nM
same,TGI,SF-295 CNS,171 nM
same,GI50,SF-539 CNS,33 nM
same,TGI,SF-539 CNS,149 nM
same,GI50,SK-MEL-2 melanoma,24.1 nM
same,TGI,SK-MEL-2 melanoma,80.2 nM
same,GI50,SK-MEL-28 melanoma,2040 nM
same,TGI,SK-MEL-28 melanoma,> 100000 nM
same,GI50,SK-MEL-5 melanoma,98.6 nM
same,TGI,SK-MEL-5 melanoma,334 nM
same,GI50,SK-OV-3 ovarian,57.3 nM
same,TGI,SK-OV-3 ovarian,264 nM
same,GI50,SN12C renal,376 nM
same,TGI,SN12C renal,2930 nM
same,GI50,SNB-19 CNS,407 nM
same,TGI,SNB-19 CNS,4350 nM
same,GI50,SNB-75 CNS,219 nM
same,TGI,SNB-75 CNS,1990 nM
same,TGI,SR leukemia,22.1 nM
same,GI50,SW-620 colon,227 nM
same,TGI,SW-620 colon,> 100000 nM
same,GI50,T-47D breast,4730 nM
same,TGI,T-47D breast,> 100000 nM
same,GI50,TK-10 renal,29.9 nM
same,TGI,TK-10 renal,231 nM
same,GI50,U251 glioblastoma,141 nM
same,TGI,U251 glioblastoma,1170 nM
same,GI50,UACC-257 melanoma,332 nM
same,TGI,UACC-257 melanoma,1890 nM
same,GI50,UACC-62 melanoma,223 nM
same,TGI,UACC-62 melanoma,1570 nM
same,GI50,UO-31 renal,194 nM
same,TGI,UO-31 renal,717 nM
